Reference: patent publication US20190177371A1, “NOVEL MODULATORS OF MELANOCORTIN RECEPTORS” (ARIZONA BOARD OF REGENTS ON BEHALF OF THE UNIVERSITY OF …, priority 2014, published 2019)

target: T1, hMC4R (Homo sapiens, UniProt P32245); assay: Competitive binding assay with [125I]-NDP-α-MSH on whole HEK293 cells expressing hMC4R
T1 sequence (P32245 whole entry): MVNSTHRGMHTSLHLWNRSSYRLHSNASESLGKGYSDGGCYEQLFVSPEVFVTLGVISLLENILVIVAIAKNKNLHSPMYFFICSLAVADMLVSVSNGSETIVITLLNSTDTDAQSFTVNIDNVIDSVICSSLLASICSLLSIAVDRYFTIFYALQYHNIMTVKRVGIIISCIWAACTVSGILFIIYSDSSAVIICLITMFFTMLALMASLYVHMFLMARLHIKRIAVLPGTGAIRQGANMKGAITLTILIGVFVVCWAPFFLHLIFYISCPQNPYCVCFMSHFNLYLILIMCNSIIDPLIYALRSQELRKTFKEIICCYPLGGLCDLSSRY
Experimental: (§1) The pharmacological characterization for the binding efficiencies greater than 70% are defined as competitive binding, binding efficiency less than 70% are non-competitive binding.
(§2) Receptor Binding Assay. Competition binding experiments were carried out using both of cloned cell line and melanoma cells (A375, ATCC). The whole HEK293 cells stably expressing human MC1, MC3, MC4, and MC5 receptors as described before. […] The assay medium was subsequently removed, the cells were washed once with basic medium, and then lysed by the addition of 100 μL of 0.1M NaOH and 100 μL of 1% Triton X-100.

Substance | binding affinity at hMC4R (in words)
Ac-Nle-c[Asp-(NMe)His-nal-Arg-(NMe)Trp-(NMe)Lys]-NH2 [Peptide 19] | good binding
Ac-Nle-c[Asp-(NMe)His-(NMe)nal-Arg-Trp-Lys]-NH2 [Peptide 5] | drastical loss of binding affinity

Other lines, results leading:

binding affinity at hMC4R (in words) | Substance
decreases by 3 orders of magnitude | Ac-Nle-c[Asp-His-nal-(NMe)Arg-Trp-(NMe)Lys]-NH2 [Peptide 8]
drastically lost | Ac-Nle-c[Asp-His-(NMe)nal-Arg-Trp-(NMe)Lys]-NH2 [Peptide 9]

target: T2, hMC5R (Homo sapiens, UniProt P33032); assay: Adenylate cyclase (cAMP) assay in HEK293 cells expressing hMC5R
T2 sequence (P33032 whole entry): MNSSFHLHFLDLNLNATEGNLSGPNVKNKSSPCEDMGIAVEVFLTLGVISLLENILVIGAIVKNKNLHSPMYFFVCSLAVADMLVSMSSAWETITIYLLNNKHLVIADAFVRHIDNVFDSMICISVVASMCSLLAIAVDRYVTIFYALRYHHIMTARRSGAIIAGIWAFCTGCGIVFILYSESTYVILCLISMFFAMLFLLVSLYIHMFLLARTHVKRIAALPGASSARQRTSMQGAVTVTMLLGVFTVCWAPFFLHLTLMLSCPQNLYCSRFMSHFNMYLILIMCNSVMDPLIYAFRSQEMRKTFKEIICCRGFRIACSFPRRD

Substance | functional (cAMP) activity at hMC5R (in words)
Ac-Nle-c[Asp-(NMe)His-nal-Arg-(NMe)Trp-(NMe)Lys]-NH2 [Peptide 19] | no activities
Ac-Nle-c[Asp-(NMe)His-(NMe)nal-Arg-Trp-Lys]-NH2 [Peptide 16] | universal antagonist
Ac-Nle-c[Asp-(NMe)His-nal-Arg-(NMe)Trp-Lys]-NH2 [Peptide 13] | moderate selective antagonist
Ac-Nle-c[Asp-(NMe)His-nal-(NMe)Arg-Trp-(NMe)Lys]-NH2 [Peptide 21] | retains agonist activity
Ac-Nle-c[Asp-(NMe)His-(NMe)nal-Arg-Trp-(NMe)Lys]-NH2 [Peptide 22] | all functional activities are abolished
Ac-Nle-c[Asp-(NMe)His-nal-(NMe)Arg-(NMe)Trp-Lys]-NH2 [Peptide 24] | selective partial agonist activity

The next lines start with the values.

functional (cAMP) activity at hMC5R (in words) | Substance
selective agonist | Ac-Nle-c[Asp-His-nal-Arg-(NMe)Trp-Lys]-NH2 [Peptide 3]
very selective antagonist | Ac-Nle-c[Asp-His-(NMe)nal-Arg-Trp-(NMe)Lys]-NH2 [Peptide 9]
all functional activities are abolished | Ac-Nle-c[Asp-His-(NMe)nal-(NMe)Arg-(NMe)Trp-Lys]-NH2 [Peptide 23]
almost a universal antagonist activity | Ac-Nle-c[Asp-His-(NMe)nal-(NMe)Arg-Trp-(NMe)Lys]-NH2 [Peptide 20]

target: T3, hMC1R (Homo sapiens, UniProt Q01726); assay: Competitive binding assay with [125I]-NDP-α-MSH on whole HEK293 cells expressing hMC1R
T3 sequence (Q01726 whole entry): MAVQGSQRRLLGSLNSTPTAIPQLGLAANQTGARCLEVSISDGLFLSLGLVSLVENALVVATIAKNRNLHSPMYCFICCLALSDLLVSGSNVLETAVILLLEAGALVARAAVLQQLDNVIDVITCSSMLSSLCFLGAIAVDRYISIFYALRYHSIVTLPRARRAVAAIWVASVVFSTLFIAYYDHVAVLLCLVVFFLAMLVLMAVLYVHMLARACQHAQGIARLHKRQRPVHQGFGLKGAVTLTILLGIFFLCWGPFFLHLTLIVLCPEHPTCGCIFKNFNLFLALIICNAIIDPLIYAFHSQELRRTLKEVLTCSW
Experimental: as §1, §2

Substance | binding affinity at hMC1R (in words)
Ac-Nle-c[Asp-(NMe)His-nal-Arg-(NMe)Trp-(NMe)Lys]-NH2 [Peptide 19] | good binding
Ac-Nle-c[Asp-His-(NMe)nal-Arg-Trp-(NMe)Lys]-NH2 [Peptide 9] | drastically lost

target: T4, hMC3R (Homo sapiens, UniProt P41968); assay: Adenylate cyclase (cAMP) assay in HEK293 cells expressing hMC3R
T4 sequence (P41968 whole entry): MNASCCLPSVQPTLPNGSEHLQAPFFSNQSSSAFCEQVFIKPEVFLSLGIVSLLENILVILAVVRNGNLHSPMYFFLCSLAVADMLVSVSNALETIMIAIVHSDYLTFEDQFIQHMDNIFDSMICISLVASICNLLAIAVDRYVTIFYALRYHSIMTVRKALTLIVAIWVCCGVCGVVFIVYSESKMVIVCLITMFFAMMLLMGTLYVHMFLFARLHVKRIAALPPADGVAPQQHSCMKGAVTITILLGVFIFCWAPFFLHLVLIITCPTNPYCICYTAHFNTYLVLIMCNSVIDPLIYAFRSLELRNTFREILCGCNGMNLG

Substance | functional (cAMP) activity at hMC3R (in words)
Ac-Nle-c[Asp-(NMe)His-nal-Arg-(NMe)Trp-(NMe)Lys]-NH2 [Peptide 19] | no activities
Ac-Nle-c[Asp-(NMe)His-(NMe)nal-Arg-Trp-Lys]-NH2 [Peptide 16] | universal antagonist
Ac-Nle-c[Asp-(NMe)His-(NMe)nal-Arg-Trp-(NMe)Lys]-NH2 [Peptide 22] | all functional activities are abolished

Second part, the substance after the results:

functional (cAMP) activity at hMC3R (in words) | Substance
potent antagonist | Ac-Nle-c[Asp-His-nal-(NMe)Arg-Trp-(NMe)Lys]-NH2 [Peptide 8]
all functional activities are abolished | Ac-Nle-c[Asp-His-(NMe)nal-(NMe)Arg-(NMe)Trp-Lys]-NH2 [Peptide 23]
very weak activity | Ac-Nle-c[Asp-His-(NMe)nal-(NMe)Arg-Trp-(NMe)Lys]-NH2 [Peptide 20]
partial agonistic activities | Ac-Nle-c[Asp-His-(NMe)nal-(NMe)Arg-Trp-Lys]-NH2 [Peptide 14]

target: T3, hMC1R; assay: Adenylate cyclase (cAMP) assay in HEK293 cells expressing hMC1R

Substance | functional (cAMP) activity at hMC1R (in words)
Ac-Nle-c[Asp-(NMe)His-nal-Arg-(NMe)Trp-(NMe)Lys]-NH2 [Peptide 19] | no activities
Ac-Nle-c[Asp-(NMe)His-(NMe)nal-Arg-Trp-Lys]-NH2 [Peptide 16] | universal antagonist
Ac-Nle-c[Asp-(NMe)His-(NMe)nal-Arg-Trp-(NMe)Lys]-NH2 [Peptide 22] | all functional activities are abolished
Ac-Nle-c[Asp-(NMe)His-nal-(NMe)Arg-(NMe)Trp-Lys]-NH2 [Peptide 24] | selective partial agonist activity

Now from value to substance:

functional (cAMP) activity at hMC1R (in words) | Substance
potent agonist | Ac-Nle-c[Asp-His-nal-(NMe)Arg-Trp-(NMe)Lys]-NH2 [Peptide 8]
greater loss of functional activity | Ac-Nle-c[Asp-His-nal-Arg-(NMe)Trp-Lys]-NH2 [Peptide 3]
full agonist activity | Ac-Nle-c[Asp-His-(NMe)nal-Arg-(NMe)Trp-(NMe)Lys]-NH2 [Peptide 18]
selective agonist activities | Ac-Nle-c[Asp-(NMe)His-nal-Arg-Trp-(NMe)Lys]-NH2 [Peptide 10]
all functional activities are abolished | Ac-Nle-c[Asp-His-(NMe)nal-(NMe)Arg-(NMe)Trp-Lys]-NH2 [Peptide 23]
almost a universal antagonist activity | Ac-Nle-c[Asp-His-(NMe)nal-(NMe)Arg-Trp-(NMe)Lys]-NH2 [Peptide 20]
partial agonistic activities | Ac-Nle-c[Asp-His-(NMe)nal-(NMe)Arg-Trp-Lys]-NH2 [Peptide 14]

target: T4, hMC3R; assay: Competitive binding assay with [125I]-NDP-α-MSH on whole HEK293 cells expressing hMC3R
Experimental: as §1, §2

Substance | binding affinity at hMC3R (in words)
Ac-Nle-c[Asp-His-nal-(NMe)Arg-Trp-(NMe)Lys]-NH2 [Peptide 8] | increases
Ac-Nle-c[Asp-(NMe)His-nal-Arg-(NMe)Trp-(NMe)Lys]-NH2 [Peptide 19] | good binding
Ac-Nle-c[Asp-His-(NMe)nal-Arg-Trp-(NMe)Lys]-NH2 [Peptide 9] | drastically lost

target: T1, hMC4R; assay: Adenylate cyclase (cAMP) assay in HEK293 cells expressing hMC4R

Substance | functional (cAMP) activity at hMC4R (in words)
Ac-Nle-c[Asp-(NMe)His-nal-Arg-(NMe)Trp-(NMe)Lys]-NH2 [Peptide 19] | no activities
Ac-Nle-c[Asp-(NMe)His-(NMe)nal-Arg-Trp-Lys]-NH2 [Peptide 16] | universal antagonist
Ac-Nle-c[Asp-(NMe)His-(NMe)nal-Arg-Trp-(NMe)Lys]-NH2 [Peptide 22] | all functional activities are abolished

Now from value to substance:

functional (cAMP) activity at hMC4R (in words) | Substance
partial agonist | Ac-Nle-c[Asp-His-(NMe)nal-Arg-(NMe)Trp-(NMe)Lys]-NH2 [Peptide 18]
all functional activities are abolished | Ac-Nle-c[Asp-His-(NMe)nal-(NMe)Arg-(NMe)Trp-Lys]-NH2 [Peptide 23]
almost a universal antagonist activity | Ac-Nle-c[Asp-His-(NMe)nal-(NMe)Arg-Trp-(NMe)Lys]-NH2 [Peptide 20]
partial agonistic activities | Ac-Nle-c[Asp-His-(NMe)nal-(NMe)Arg-Trp-Lys]-NH2 [Peptide 14]

target: T2, hMC5R; assay: Competitive binding assay with [125I]-NDP-α-MSH on whole HEK293 cells expressing hMC5R
Experimental: as §1, §2

Substance | binding affinity at hMC5R (in words)
Ac-Nle-c[Asp-(NMe)His-nal-Arg-(NMe)Trp-(NMe)Lys]-NH2 [Peptide 19] | good binding
